According to patent US12528812B2 (Genentech, Inc., priority 2020, dated 2026):
Like-named read-outs stand apart in the source and are kept apart here.

Key:
[1] = target: T1, recombinant human JAK1 kinase domain protein (Residues 854-1154) (Homo sapiens, UniProt P23458); assay: JAK1 biochemical assay (LabChip mobility shift, Ki); conditions: read-out: Biochem JAK1 Ki
T1 construct: human JAK1 kinase domain protein (Residues 854-1154); purchased Proteros Biostructures GmbH (Martinsried, Germany); host or cells: insect cells
T1 sequence (P23458 854-1154): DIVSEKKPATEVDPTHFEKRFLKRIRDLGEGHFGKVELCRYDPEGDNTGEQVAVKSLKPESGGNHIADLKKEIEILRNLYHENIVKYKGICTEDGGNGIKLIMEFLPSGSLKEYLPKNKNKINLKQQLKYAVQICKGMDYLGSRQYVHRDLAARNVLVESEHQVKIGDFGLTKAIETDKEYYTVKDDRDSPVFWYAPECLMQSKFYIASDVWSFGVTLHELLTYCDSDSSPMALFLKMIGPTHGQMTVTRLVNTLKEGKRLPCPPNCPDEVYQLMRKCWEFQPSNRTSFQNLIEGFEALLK

[2] = system: EPO-stimulated P-STAT5 in TF-1 human erythroleukemia cells; assay: P-STAT5 TF-1 + EPO assay (JAK2 pathway); format: cell-based; conditions: EPO stimulation, read-out: Cellular JAK2 PSTAT5 TF-1 + EPO
Method: (§1) TF-1 human erythroleukemia cells (ATCC′; Manassas, VA; Catalog No. CRL-2003™) were grown in Roswell Park Memorial Institute (RPMI) medium supplemented with 10% heat-inactivated fetal bovine serum (FBS), 2 ng/mL granulocyte-macrophage colony-stimulating factor, 1× non-essential amino acids (NEAA), and 1 mM sodium pyruvate. The day before the assay, the cultures were transferred to Opti-MEM™, 1×NEAA, 1 mM sodium pyruvate, and 0.5% charcoal-stripped FBS (starve medium). Inhibitor stock solutions (5 mM in DMSO) were serially diluted 1:2 in DMSO to generate a 10-point concentration titration (at 500× test concentration), which was further diluted by a 50-fold dilution in Assay Medium (RPMI containing 1×NEAA and 1 mM sodium pyruvate) to generate a 10× concentration titration (in 2% DMSO). The cells (300,000 cells/well in 35 μL of Assay Medium) were seeded in 384-well Greiner plates. Diluted inhibitor at 10× concentration (5 μL) was added to the cells and the plates were incubated for 30 minutes at 37° C. in a humidified incubator. Cells were stimulated with the human recombinant cytokine at the respective EC90 concentrations, as previously determined for each individual lot. For the phosphorylated signal transducer and activator of transcription 6 (P-STAT6) TF-1+Interleukin-13 (IL-13) assay, 10 μL of 250 ng/mL IL-13 (R&D Systems; Minneapolis, MN) was added to the cells, which were then incubated for 10 minutes at 37° C. For the P-STAT5 TF-1+Erythropoietin (EPO) assay, 10 μL of 110 IU/mL EPO (Gibco Life Technologies, Catalog No. PHC2054) was added to the cells, which were then incubated for […] at 37° C. For both assays, the incubation was followed by addition to the cells of 5 μL of ice-cold 10× cell lysis buffer (Cell Signaling Technologies; Danvers, MA; Catalog No. 9803S) containing 1 mM phenylmethylsulfonyl fluoride (PMSF). Assay plates were frozen at −80° C. for a minimum of 1 hour. In the IL-13 assay, P-STAT6 was measured by coating goat anti-rabbit (GAR) plates (Meso Scale Discovery [MSD]; Rockville, MD; Catalog No. MSD L21RA-1) with rabbit anti-human total STAT6 antibody (Cell Signaling Technologies; Catalog No. 9362S), incubating the cell lysates in the coated plates overnight at 4° C., and then detecting with mouse anti-P-STAT6 (Tyr641) Clone 16E12 antibody (MilliporeSigma; Burlington, MA; Catalog No. 05-590, custom labeled by MSD with SULFO-tag) using standard MSD plate processing, washing, and detection protocols. In the EPO assay, P-STAT5 was detected using the phospho-STAT5a,b Whole Cell Lysate Kit (MSD; Catalog No. K150IGD-1). The electrochemiluminescence (ECL) signal of wells was read on the MESO SECTOR 5600 (MSD) reader.
(§2) Data analysis was performed by subtracting the negative control (cytokine stimulated and 20 μM control inhibitor-treated cells) mean ECL value from the ECL value of all wells, determining percent of control for test compound well ECL values relative to the positive control (cytokine stimulated and DMSO-treated cells) mean ECL value, and determining the IC50 for test compounds with a four-parameter logistic fit model as shown in Equation 4.

[3] = target: Recombinant human JAK2 kinase domain protein (Residues 812-1132) (Homo sapiens, UniProt O60674); assay: JAK2 biochemical assay (LabChip mobility shift, Ki); conditions: Biochem JAK2 Ki
Recombinant human JAK2 kinase domain protein (Residues 812-1132), sequence (O60674 812-1132): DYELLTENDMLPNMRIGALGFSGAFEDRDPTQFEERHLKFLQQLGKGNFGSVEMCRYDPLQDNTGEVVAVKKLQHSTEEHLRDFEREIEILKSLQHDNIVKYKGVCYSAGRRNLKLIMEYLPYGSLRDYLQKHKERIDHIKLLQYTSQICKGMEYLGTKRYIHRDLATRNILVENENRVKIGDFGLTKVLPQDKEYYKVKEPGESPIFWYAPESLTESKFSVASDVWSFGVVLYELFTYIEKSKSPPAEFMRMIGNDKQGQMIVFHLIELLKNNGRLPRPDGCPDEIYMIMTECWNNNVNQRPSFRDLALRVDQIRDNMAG
Method: The in vitro biochemical assays quantify JAK-catalyzed phosphorylation of a synthetic peptide, as detected using a LabChip® EZ Reader II microfluidic mobility shift instrument (PerkinElmer; Waltham, MA). […] Y-1B is fluorescently labeled on the N-terminus with 5-FAM (5-carboxyfluorescein) and contains a single tyrosine residue (Y) that can be phosphorylated by JAK activity. The substrate peptide stock is prepared in DMSO at 5 mM. […] In each titration experiment, test compound was tested in duplicate at each of the twelve concentrations. Blank reactions contained ATP, peptide, and DMSO, but no JAK or test compound, whereas uninhibited control reactions contained ATP, peptide, JAK, and DMSO, but no test compound.
Peptide plus ATP mixture (24 μL) was added to 1 μL of test compound in DMSO (or DMSO alone). The reactions were initiated by adding 25 μL of JAK enzyme to the inhibitor/peptide/ATP mixture before thoroughly mixing the resultant solution. Reactions were incubated at room temperature (22° C.-23° C.) in a final volume of 50 μL per well in 384-well plates. After a 30-minute incubation, the reactions were stopped by adding 25 μL of 150 mM ethylenediaminetetraacetic acid in 100 mM HEPES buffer (pH 7.2) containing 0.015% Brij 35 to each well.
In each reaction, the residual Y-1B substrate and the phospho-peptide product generated were separated using the EZ Reader II instrument. Electrophoretic separation of molecules of product from molecules of substrate was achieved using downstream and upstream voltages of −500 and −2600 V, respectively, at an operating pressure of −1.3 psi.
The extent (or percent) of conversion of substrate to product was calculated from the corresponding peak heights in the electropherogram using HTS Well Analyzer software, Version 5.2 (PerkinElmer), and the following equation (Equation 1): conversion=[P÷(S+P)]×100 Equation 1% where S and P represent the peak heights of the substrate and product, respectively. After any baseline signal from blank wells containing no JAK was subtracted from the signal of all test wells, the % conversion data were converted to fractional activity as shown in Equation 2, where vi and vo are the % conversion in the presence and absence of test compound, respectively.

[4] = system: IL-13-stimulated P-STAT6 in TF-1 human erythroleukemia cells; assay: P-STAT6 TF-1 + IL-13 assay (JAK1 pathway); format: cell-based; conditions: IL13 stimulation, read-out: Cellular JAK1 PSTAT6 TF-1 + IL13
Method: as §1, §2

[5] = system: IL-13-stimulated STAT6 phosphorylation in human lung bronchial epithelial BEAS-2B cell line; assay: P-STAT6 BEAS-2B + IL-13 cell assay; format: cell-based; conditions: BEAS2B cells, IL13 stimulation, read-out: Cellular JAK1 PSTAT6 BEAS2B + IL13
Method in brief: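 BEAS-2B cells grown 48 h at 37 °C, pre-treated 1 h with compound (10-point 1:2 dilution curve), then stimulated 15 min with human recombinant IL-13 (250 ng/mL stock). Lysate P-STAT6 (Tyr641) read by MSD sandwich ELISA with total-STAT6 capture; IC50 from four-parameter logistic fit of control-normalised data.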

| Ki [1] [nM] | IC50 ([2]; Homo sapiens, TF-1, TF-1 cells) [nM] | Ki [3] [nM] | IC50 ([4]; Homo sapiens, TF-1, TF-1 cells) [nM] | IC50 ([4]; TF-1 cells) [nM] | IC50 ([2]; TF-1 cells) [nM] | SMILES | IC50 ([5]; Homo sapiens, BEAS-2B) [nM] | IC50 [5] [nM] |
| --- | --- | --- | --- | --- | --- | --- | --- | --- |
| 0.4 | 7.6 | 0.24 | 4.6 | – | – | Cn1cc(NC(=O)c2cnn3cccnc23)c(-c2cc(Oc3cnn(C(F)F)c3)ccc2OC(F)F)n1 [Example 132, N-[3-[2-(difluoromethoxy)-5-[1-(difluoromethyl)pyrazol-4-yl]oxy-phenyl]-1-methyl-pyrazol-4-yl]pyrazolo[1,5-a]pyrimidine-3-carboxamide] | 14 | – |
| 1.1 | 24 | 1.2 | 13 | – | – | CN(C)Cc1cncc(Oc2ccc(OC(F)F)c(-c3nn(C)cc3NC(=O)c3cnn4cccnc34)c2)c1 [Example 133, N-[3-[2-(difluoromethoxy)-5-[[5-[(dimethylamino)methyl]-3-pyridyl]oxy]phenyl]-1-methyl-pyrazol-4-yl]pyrazolo[1,5-a]pyrimidine-3-carboxamide] | 62 | – |
| 0.69 | 23 | 0.36 | 3 | – | – | Cn1ccc(Oc2ccc(OC(F)F)c(-c3nn(C)cc3NC(=O)c3cnn4cccnc34)c2)n1 [Example 143, N-[3-[2-(difluoromethoxy)-5-(1-methylpyrazol-3-yl)oxy-phenyl]-1-methyl-pyrazol-4-yl]pyrazolo[1,5-a]pyrimidine-3-carboxamide] | 26 | – |
| 0.1 | 3.6 | 0.07 | 2.1 | – | – | Cn1cc(NC(=O)c2cnn3cccnc23)c(-c2cc(Oc3cn[nH]c3)ccc2OC(F)F)n1 [Example 160, N-[3-[2-(difluoromethoxy)-5-(1H-pyrazol-4-yloxy)phenyl]-1-methyl-pyrazol-4-yl]pyrazolo[1,5-a]pyrimidine-3-carboxamide] | 8.3 | – |
| 0.13 | 68 | 0.076 | 24 | – | – | O=C(Nc1c[nH]nc1-c1cc(Oc2cn[nH]c2)ccc1OC(F)F)c1cnn2cccnc12 [Example 173, N-[3-[2-(difluoromethoxy)-5-(1H-pyrazol-4-yloxy)phenyl]-1H-pyrazol-4-yl]pyrazolo[1,5-a]pyrimidine-3-carboxamide] | 82 | – |
| 0.29 | 49 | 0.21 | – | 26 | – | CN1CC(O)C(n2cc(Oc3ccc(OC(F)F)c(-c4nn(C)cc4NC(=O)c4cnn5cccnc45)c3)cn2)C1 (stereo not drawn) [Example 178, N-[3-[2-(difluoromethoxy)-5-[1-(4-hydroxy-l-methyl-pyrrolidin-3-yl)pyrazol-4-yl]oxy-phenyl]-1-methyl-pyrazol-4-yl]pyrazolo[1,5-a]pyrimidine-3-carboxamide] | 32 | – |
| 0.82 | – | 0.4 | – | 92 | 72 | CN1CC(O)C(n2cc(Oc3ccc(OC(F)F)c(-c4nn(C)cc4NC(=O)c4cnn5cccnc45)c3)cn2)C1 (stereo not drawn) [Example 179, N-[3-[2-(difluoromethoxy)-5-[1-(4-hydroxy-l-methyl-pyrrolidin-3-yl)pyrazol-4-yl]oxy-phenyl]-1-methyl-pyrazol-4-yl]pyrazolo[1,5-a]pyrimidine-3-carboxamide] | – | 50 |
| 0.76 | 58 | 0.39 | 22 | – | – | CN1CCC(n2cc(Oc3ccc(OC(F)F)c(-c4nn(C)cc4NC(=O)c4cnn5cccnc45)c3)cn2)C(O)C1 (centres unmarked) [Example 186, N-[3-[2-(difluoromethoxy)-5-[1-(3-hydroxy-1-methyl-4-piperidyl)pyrazol-4-yl]oxy-phenyl]-1-methyl-pyrazol-4-yl]pyrazolo[1,5-a]pyrimidine-3-carboxamide] | 48 | – |
| 0.35 | – | 0.24 | – | 34 | 38 | CN1CCC(n2cc(Oc3ccc(OC(F)F)c(-c4nn(C)cc4NC(=O)c4cnn5cccnc45)c3)cn2)C(O)C1 (centres unmarked) [Example 187, N-[3-[2-(difluoromethoxy)-5-[1-(3-hydroxy-1-methyl-4-piperidyl)pyrazol-4-yl]oxy-phenyl]-1-methyl-pyrazol-4-yl]pyrazolo[1,5-a]pyrimidine-3-carboxamide] | – | 44 |
| 1.4 | 130 | 1 | 180 | – | – | CN1CC(O)(c2cccc(Oc3ccc(OC(F)F)c(-c4nn(C)cc4NC(=O)c4cnn5cccnc45)c3)n2)C1 [Example 190, N-[3-[2-(difluoromethoxy)-5-[[6-(3-hydroxy-l-methyl-azetidin-3-yl)-2-pyridyl]oxy]phenyl]-1-methyl-pyrazol-4-yl]pyrazolo[1,5-a]pyrimidine-3-carboxamide] | 38 | – |
| 0.28 | 2.1 | 0.2 | 3.3 | – | – | CC(=O)n1cc(Oc2ccc(OC(F)F)c(-c3nn(C)cc3NC(=O)c3cnn4cccnc34)c2)cn1 [Example 192, N-[3-[5-(1-acetylpyrazol-4-yl)oxy-2-(difluoromethoxy)phenyl]-1-methyl-pyrazol-4-yl]pyrazolo[1,5-a]pyrimidine-3-carboxamide] | 9.3 | – |
| 0.38 | 9.7 | 0.26 | 4.1 | – | – | Cn1cc(NC(=O)c2cnn3cccnc23)c(-c2cc(Oc3cnn(S(C)(=O)=O)c3)ccc2OC(F)F)n1 [Example 195, N-[3-[2-(difluoromethoxy)-5-(1-methylsulfonylpyrazol-4-yl)oxy-phenyl]-1-methyl-pyrazol-4-yl]pyrazolo[1,5-a]pyrimidine-3-carboxamide] | 13 | – |
| 0.46 | 21 | 0.34 | 14 | – | – | CC(C)N1CC(O)(Cn2cc(Oc3ccc(OC(F)F)c(-c4nn(C)cc4NC(=O)c4cnn5cccnc45)c3)cn2)C1 [Example 201, N-[3-[2-(difluoromethoxy)-5-[1-[(3-hydroxy-1-isopropyl-azetidin-3-yl)methyl]pyrazol-4-yl]oxy-phenyl]-1-methyl-pyrazol-4-yl]pyrazolo[1,5-a]pyrimidine-3-carboxamide] | 34 | – |
